Test results as given in PubChem BioAssay AID330 (DTP/NCI, 2004).
Values joined by “and” are separate entries in the source; they are usually repeats but may differ in a detail not shown here. Identical values can stand only once. Toxic doses and inconclusive results are not listed.

Tested on: P388 leukemia ip, CD2F1 mice, survival T/C
Test: NCI In Vivo Anticancer Drug Screen. Data for tumor model P388 Leukemia (intraperitoneal) in CD2F1 (CDF1) mice
Settings: endpoint: median survival time, higher = longer survival
Outline: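 Mice carrying the transplanted tumor received test compound or vehicle. Survival was recorded in each group, and the value is the treated-group measurement divided by that of the vehicle-treated control group.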

[1] = dose: 50.0 mg/kg/injection, schedule: Q01DX009 (ip), vehicle: Klucel (hydroxypropylcellulose) (HPC)
[2] = dose: 100.0 mg/kg/injection, schedule: Q01DX009 (ip), vehicle: Klucel (hydroxypropylcellulose) (HPC)
[3] = dose: 60.0 mg/kg/injection, schedule: Q01DX005 (ip), vehicle: saline with Tween-80
[4] = dose: 120.0 mg/kg/injection, schedule: Q01DX005 (ip), vehicle: saline with Tween-80
[5] = dose: 240.0 mg/kg/injection, schedule: Q01DX005 (ip), vehicle: saline with Tween-80
[6] = dose: 200.0 mg/kg/injection, schedule: Q01DX009 (ip), vehicle: Klucel (hydroxypropylcellulose) (HPC)
[7] = dose: 100.0 mg/kg/injection, schedule: Q04DX003 (ip), vehicle: saline with Tween-80
[8] = dose: 200.0 mg/kg/injection, schedule: Q04DX003 (ip), vehicle: saline with Tween-80
[9] = dose: 400.0 mg/kg/injection, schedule: Q04DX003 (ip), vehicle: saline with Tween-80
[10] = dose: 50.0 mg/kg/injection, schedule: Q01DX005 (ip), vehicle: Klucel (hydroxypropylcellulose) (HPC)
[11] = dose: 100.0 mg/kg/injection, schedule: Q01DX005 (ip), vehicle: Klucel (hydroxypropylcellulose) (HPC)
[12] = dose: 60.0 mg/kg/injection, schedule: Q01DX005 (ip), vehicle: Klucel (hydroxypropylcellulose) (HPC)
[13] = dose: 120.0 mg/kg/injection, schedule: Q01DX005 (ip), vehicle: Klucel (hydroxypropylcellulose) (HPC)
[14] = dose: 50.0 mg/kg/injection, schedule: Q01DX005 (ip), vehicle: saline with Tween-80
[15] = dose: 100.0 mg/kg/injection, schedule: Q01DX005 (ip), vehicle: saline with Tween-80
[16] = dose: 200.0 mg/kg/injection, schedule: Q01DX005 (ip), vehicle: saline with Tween-80
[17] = dose: 200.0 mg/kg/injection, schedule: Q01DX005 (ip), vehicle: Klucel (hydroxypropylcellulose) (HPC)

CO[C@@]12[C@@H]3N[C@@H]3CN1C1=C(C(=O)C(NCC3CCCO3)=C(C)C1=O)[C@@H]2COC(N)=O (stereo partly specified)
T/C (dose: 1.56 mg/kg/injection, schedule: Q01DX005 (ip), vehicle: distilled water + Tween-80): 155 % of control
T/C (dose: 3.12 mg/kg/injection, schedule: Q01DX005 (ip), vehicle: distilled water + Tween-80): 194 % of control
T/C (dose: 6.25 mg/kg/injection, schedule: Q01DX005 (ip), vehicle: distilled water + Tween-80): 198 % of control and 241 % of control
T/C (dose: 12.5 mg/kg/injection, schedule: Q01DX001 (ip), vehicle: distilled water + Tween-80): 158 % of control
T/C (dose: 12.5 mg/kg/injection, schedule: Q01DX005 (ip), vehicle: distilled water + Tween-80): 223 % of control and 225 % of control
T/C (dose: 25.0 mg/kg/injection, schedule: Q01DX001 (ip), vehicle: distilled water + Tween-80): 165 % of control
T/C (dose: 25.0 mg/kg/injection, schedule: Q01DX005 (ip), vehicle: distilled water + Tween-80): 100 % of control and 207 % of control
T/C (dose: 50.0 mg/kg/injection, schedule: Q01DX001 (ip), vehicle: distilled water + Tween-80): 203 % of control

O=C(Nc1ccc(N=C=S)cc1Cl)c1cc(Cl)cc(Cl)c1O
T/C [1]: 119 % of control
T/C [2]: 122 % of control

C=C(c1ccc(OC)cc1)c1ccc(OC)cc1
T/C (dose: 50.0 mg/kg/injection, schedule: Q01DX009 (ip), vehicle: saline with Tween-80): 103 % of control
T/C (dose: 100.0 mg/kg/injection, schedule: Q01DX009 (ip), vehicle: saline with Tween-80): 105 % of control
T/C (dose: 200.0 mg/kg/injection, schedule: Q01DX009 (ip), vehicle: saline with Tween-80): 102 % of control

Cc1ccccc1N1C(=O)C(=O)C(c2nc3ccccc3s2)C(=O)C1=O
T/C [3]: 99 % of control
T/C [4]: 98 % of control
T/C [5]: 97 % of control

CCCCCCCCCCCCNC(=O)NCC(=O)OCC
T/C (dose: 25.0 mg/kg/injection, schedule: Q01DX009 (ip), vehicle: Klucel (hydroxypropylcellulose) (HPC)): 91 % of control
T/C [1]: 100 % of control
T/C [2]: 103 % of control
T/C [6]: 89 % of control

O=C1OC(=O)C2C1C1(c3ccccc3)OC2(c2ccccc2)c2ccccc21 (stereo unspecified)
T/C [7]: 110 % of control
T/C [8]: 109 % of control
T/C [9]: 118 % of control

O=[N+]([O-])c1ccc2c(c1)[S@@](=O)c1nc([N+](=O)[O-])cnc1N2
T/C [10]: 103 % of control
T/C [11]: 101 % of control

O=C(O)C(=O)Nc1cccc2c1ccc1c(=O)cc(C(=O)O)[nH]c12
T/C (dose: 50.0 mg/kg/injection, schedule: Q01DX009 (ip), vehicle: saline): 109 % of control
T/C (dose: 100.0 mg/kg/injection, schedule: Q01DX009 (ip), vehicle: saline): 109 % of control
T/C (dose: 200.0 mg/kg/injection, schedule: Q01DX009 (ip), vehicle: saline): 104 % of control

CC(=O)NC(CSC1(c2ccccc2)c2ccccc2-c2ccccc21)C(=O)O (stereo unspecified)
T/C [12]: 93 % of control
T/C [13]: 89 % of control

CN1C(=O)N(C)N(Cc2ccccc2)C(=O)N1Cc1ccccc1
T/C [12]: 97 % of control
T/C [13]: 100 % of control
T/C (dose: 240.0 mg/kg/injection, schedule: Q01DX005 (ip), vehicle: Klucel (hydroxypropylcellulose) (HPC)): 96 % of control

N#CCCCCCN1CCN(c2cccc(Cl)c2)CC1
T/C [1]: 100 % of control
T/C [2]: 100 % of control
T/C [6]: 96 % of control

NC(=O)C1=Cc2cccn2-c2ccccc2S1
T/C [12]: 105 % of control
T/C [13]: 101 % of control

CN1N=Nc2ccccc2C1(O)c1ccc(F)cc1 (stereo unspecified)
T/C [14]: 104 % of control
T/C [15]: 104 % of control
T/C [16]: 107 % of control

Cn1c(C2CCC(=O)N2Cc2ccccc2)n[nH]c1=S (stereo unspecified)
T/C [3]: 101 % of control
T/C [4]: 101 % of control
T/C [5]: 100 % of control

C=CC1O[C@H](C)C[C@H](C)O1 (stereo partly specified)
T/C (dose: 60.0 mg/kg/injection, schedule: Q01DX005 (ip), vehicle: saline): 109 % of control
T/C (dose: 120.0 mg/kg/injection, schedule: Q01DX005 (ip), vehicle: saline): 100 % of control
T/C (dose: 240.0 mg/kg/injection, schedule: Q01DX005 (ip), vehicle: saline): 104 % of control

Cc1cn(C2CC(O)C(CS)O2)c(=O)[nH]c1=O (stereo unspecified)
T/C [14]: 104 % of control
T/C [15]: 105 % of control
T/C [16]: 103 % of control

O=[N+]([O-])c1cccc(OCCOc2ccccc2)c1
T/C (dose: 100.0 mg/kg/injection, schedule: Q01DX009 (ip), vehicle: other): 110 % of control
T/C (dose: 200.0 mg/kg/injection, schedule: Q01DX009 (ip), vehicle: other): 105 % of control

O=c1[nH]c2c([N+](=O)[O-])cc(Cl)cc2nc1/C=C(\O)c1ccc2ccccc2c1
T/C [3]: 98 % of control
T/C [4]: 90 % of control
T/C [5]: 99 % of control

COC(=O)c1nc(=S)[nH]c(C(=O)OC)c1C(=O)c1ccccn1
T/C (dose: 60.0 mg/kg/injection, schedule: Q01DX005 (ip), vehicle: Klucel + Tween-80): 105 % of control
T/C (dose: 120.0 mg/kg/injection, schedule: Q01DX005 (ip), vehicle: Klucel + Tween-80): 95 % of control
T/C (dose: 240.0 mg/kg/injection, schedule: Q01DX005 (ip), vehicle: Klucel + Tween-80): 95 % of control

C=CC(C)(C)C12CC3C(=O)Nc4ccccc4C(=O)N3C1Nc1ccccc12 (stereo unspecified)
T/C (dose: 25.0 mg/kg/injection, schedule: Q01DX005 (ip), vehicle: distilled water + Tween-80 + alcohol): 95 % of control
T/C (dose: 50.0 mg/kg/injection, schedule: Q01DX005 (ip), vehicle: distilled water + Tween-80 + alcohol): 97 % of control
T/C (dose: 100.0 mg/kg/injection, schedule: Q01DX005 (ip), vehicle: distilled water + Tween-80 + alcohol): 103 % of control
T/C (dose: 200.0 mg/kg/injection, schedule: Q01DX005 (ip), vehicle: distilled water + Tween-80 + alcohol): 98 % of control

O=C(O)/C(Cl)=C(/Cl)C(=O)C(Cl)(Cl)Cl
T/C (dose: 3.13 mg/kg/injection, schedule: Q01DX009 (ip), vehicle: distilled water + Tween-80): 108 % of control
T/C (dose: 25.0 mg/kg/injection, schedule: Q01DX009 (ip), vehicle: distilled water + Tween-80): 155 % of control
T/C (dose: 50.0 mg/kg/injection, schedule: Q01DX009 (ip), vehicle: distilled water + Tween-80): 155 % of control

CCC(C)(S)CN (stereo unspecified)
T/C (dose: 100.0 mg/kg/injection, schedule: Q01DX001 (ip), vehicle: saline): 90 % of control
T/C (dose: 200.0 mg/kg/injection, schedule: Q01DX001 (ip), vehicle: saline): 90 % of control
T/C (dose: 400.0 mg/kg/injection, schedule: Q01DX001 (ip), vehicle: saline): 92 % of control

c1cnc2c3ccncc3c3nc(-c4ccncc4)[nH]c3c2c1
T/C [10]: 91 % of control
T/C [11]: 88 % of control
T/C [17]: 101 % of control

O=C1c2ccccc2C(=O)N1c1ccc(Nc2nc(Nc3ccc(N4C(=O)c5ccccc5C4=O)cc3)nc(N(C3CCCCC3)C3CCCCC3)n2)cc1
T/C [14]: 94 % of control
T/C [15]: 87 % of control

COC(=O)C1=CN(C(C)=O)C=C(C(=O)OC)C1c1ccccc1
T/C [14]: 102 % of control
T/C [15]: 93 % of control
T/C [16]: 92 % of control

C[N+](C)(C[Si](C)(C)C)C1CCCCCCCCCCC1
T/C (dose: 15.0 mg/kg/injection, schedule: Q01DX005 (ip), vehicle: saline with Tween-80): 102 % of control

Nc1cccc(C(=O)NCCNC(=O)c2cccc(N)c2O)c1O
T/C [10]: 98 % of control
T/C [11]: 97 % of control
T/C [17]: 95 % of control

CN(C)c1ccc(C2(c3ccccc3)c3ccccc3C(=O)N2N)cc1 (stereo unspecified)
T/C (dose: 100.0 mg/kg/injection, schedule: Q04DX002 (ip), vehicle: saline with Tween-80): 89 % of control
T/C (dose: 200.0 mg/kg/injection, schedule: Q04DX002 (ip), vehicle: saline with Tween-80): 89 % of control
T/C (dose: 400.0 mg/kg/injection, schedule: Q04DX002 (ip), vehicle: saline with Tween-80): 90 % of control

CSc1ncc(Br)c(C(=O)O)n1
T/C [7]: 100 % of control
T/C [8]: 100 % of control
T/C [9]: 100 % of control
